Here are results for 9 compounds from ChEMBL document CHEMBL1909046, “DrugMatrix in vitro pharmacology data”.

Data set [1] concerns the target Beta-3 adrenergic receptor (Homo sapiens, UniProt P13945). Nature of the data set: DRUGMATRIX: Adrenergic beta3 radioligand binding (ligand: [125I] Cyanopindolol). It counts as cell membranes, HEK293, Membrane. To be noted: Not Active = under 50% inhibition at 10 µM.
The target in data set [2] is T1, Glucocorticoid receptor (Homo sapiens, UniProt P04150). Also: in other assays of this panel Not Active means under 50% inhibition at 10 µM.
T1 sequence (P04150 whole entry): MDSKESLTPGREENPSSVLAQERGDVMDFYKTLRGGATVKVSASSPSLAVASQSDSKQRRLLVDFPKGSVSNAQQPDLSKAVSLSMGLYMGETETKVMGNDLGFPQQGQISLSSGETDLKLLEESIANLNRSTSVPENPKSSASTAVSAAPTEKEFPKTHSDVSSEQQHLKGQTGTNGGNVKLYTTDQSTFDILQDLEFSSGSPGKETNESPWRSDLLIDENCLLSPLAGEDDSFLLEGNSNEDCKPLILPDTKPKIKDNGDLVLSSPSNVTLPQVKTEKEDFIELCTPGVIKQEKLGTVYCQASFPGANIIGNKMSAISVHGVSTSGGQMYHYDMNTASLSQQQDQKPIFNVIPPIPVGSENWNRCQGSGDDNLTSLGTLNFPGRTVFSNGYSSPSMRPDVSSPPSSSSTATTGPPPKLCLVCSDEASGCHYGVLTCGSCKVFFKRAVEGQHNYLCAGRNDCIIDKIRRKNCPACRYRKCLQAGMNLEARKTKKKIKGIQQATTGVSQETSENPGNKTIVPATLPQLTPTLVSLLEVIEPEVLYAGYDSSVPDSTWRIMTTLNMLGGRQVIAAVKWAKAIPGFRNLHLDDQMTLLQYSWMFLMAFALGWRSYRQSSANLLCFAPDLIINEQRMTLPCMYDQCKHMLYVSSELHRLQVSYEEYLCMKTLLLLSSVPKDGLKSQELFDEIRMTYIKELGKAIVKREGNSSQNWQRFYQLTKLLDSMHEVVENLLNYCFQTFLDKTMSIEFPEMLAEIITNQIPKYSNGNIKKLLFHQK
The conditions noted are these: hela s3.

Data set [3] can be described thus: DRUGMATRIX: Phosphodiesterase PDE3 enzyme inhibition (substrate: [3H]cAMP + cAMP). It counts as tissue-based, Homo sapiens. To be noted: platelet; Not Active = under 50% inhibition at 10 µM.
Data set [4] has as its target T2, Cholecystokinin receptor type A (Homo sapiens, UniProt P32238). Also: in other assays of this panel Not Active means under 50% inhibition at 10 µM.
T2 sequence (P32238 whole entry): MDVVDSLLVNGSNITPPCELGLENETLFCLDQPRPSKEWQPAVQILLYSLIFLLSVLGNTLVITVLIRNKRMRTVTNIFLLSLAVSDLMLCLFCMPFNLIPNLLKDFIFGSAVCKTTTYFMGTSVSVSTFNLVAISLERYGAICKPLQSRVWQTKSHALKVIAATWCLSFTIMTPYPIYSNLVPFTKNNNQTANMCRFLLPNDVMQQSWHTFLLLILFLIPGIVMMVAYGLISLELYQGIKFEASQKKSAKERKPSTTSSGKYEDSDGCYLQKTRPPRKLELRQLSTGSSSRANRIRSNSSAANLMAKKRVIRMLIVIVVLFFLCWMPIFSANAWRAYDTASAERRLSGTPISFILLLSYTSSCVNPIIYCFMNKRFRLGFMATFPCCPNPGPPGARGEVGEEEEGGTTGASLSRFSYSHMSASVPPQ
The class given is cell membranes, Membrane. The conditions noted are these: 1321-n1.

The target of data set [5] is T3, Cytochrome P450 1A2 (Homo sapiens, UniProt P05177). Also: in other assays of this panel Not Active means under 50% inhibition at 10 µM.
T3 sequence (P05177 whole entry): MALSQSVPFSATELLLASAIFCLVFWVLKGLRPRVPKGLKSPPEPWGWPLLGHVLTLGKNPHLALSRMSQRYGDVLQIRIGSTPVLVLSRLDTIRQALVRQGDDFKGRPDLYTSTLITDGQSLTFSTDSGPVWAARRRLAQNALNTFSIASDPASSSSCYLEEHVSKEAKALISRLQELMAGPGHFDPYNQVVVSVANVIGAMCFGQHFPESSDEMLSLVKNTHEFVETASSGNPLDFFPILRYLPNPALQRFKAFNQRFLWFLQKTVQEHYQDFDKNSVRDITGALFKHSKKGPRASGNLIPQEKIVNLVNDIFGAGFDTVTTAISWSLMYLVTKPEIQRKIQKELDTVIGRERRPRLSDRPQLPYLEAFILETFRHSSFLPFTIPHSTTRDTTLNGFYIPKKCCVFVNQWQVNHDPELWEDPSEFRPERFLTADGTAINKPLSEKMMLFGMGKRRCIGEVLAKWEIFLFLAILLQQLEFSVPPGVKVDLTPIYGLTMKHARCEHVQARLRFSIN
To be noted: bti-tn-5b1-4.

Data set [6] has as its target Cannabinoid receptor 1 (Homo sapiens, UniProt P21554). It counts as cell membranes, Chem-1, Membrane. To be noted: chem-1. Also: in other assays of this panel Not Active means under 50% inhibition at 10 µM.
Data set [7] deals with T4, C-X-C chemokine receptor type 1 (Homo sapiens, UniProt P25024).
T4 sequence (P25024 whole entry): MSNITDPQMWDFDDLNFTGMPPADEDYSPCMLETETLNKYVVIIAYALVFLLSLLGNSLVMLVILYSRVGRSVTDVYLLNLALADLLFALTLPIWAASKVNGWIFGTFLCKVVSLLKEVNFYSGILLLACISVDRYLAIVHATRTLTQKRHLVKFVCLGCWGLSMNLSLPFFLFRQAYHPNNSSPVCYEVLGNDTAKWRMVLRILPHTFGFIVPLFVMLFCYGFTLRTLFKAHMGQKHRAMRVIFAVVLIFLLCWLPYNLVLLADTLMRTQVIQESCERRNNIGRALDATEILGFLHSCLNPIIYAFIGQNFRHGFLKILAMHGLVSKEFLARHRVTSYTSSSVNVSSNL

Sequence of Beta-3 adrenergic receptor (P13945 whole entry): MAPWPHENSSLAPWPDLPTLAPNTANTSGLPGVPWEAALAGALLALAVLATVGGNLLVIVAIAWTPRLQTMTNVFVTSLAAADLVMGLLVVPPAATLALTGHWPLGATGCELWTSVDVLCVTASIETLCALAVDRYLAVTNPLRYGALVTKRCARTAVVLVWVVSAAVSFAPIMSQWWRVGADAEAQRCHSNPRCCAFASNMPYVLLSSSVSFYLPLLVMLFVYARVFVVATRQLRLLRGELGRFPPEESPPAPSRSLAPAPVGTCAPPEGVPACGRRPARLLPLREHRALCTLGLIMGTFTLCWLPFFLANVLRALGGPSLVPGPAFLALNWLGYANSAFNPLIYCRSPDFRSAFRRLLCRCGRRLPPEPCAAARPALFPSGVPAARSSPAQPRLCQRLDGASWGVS
Sequence of Cannabinoid receptor 1 (P21554 whole entry): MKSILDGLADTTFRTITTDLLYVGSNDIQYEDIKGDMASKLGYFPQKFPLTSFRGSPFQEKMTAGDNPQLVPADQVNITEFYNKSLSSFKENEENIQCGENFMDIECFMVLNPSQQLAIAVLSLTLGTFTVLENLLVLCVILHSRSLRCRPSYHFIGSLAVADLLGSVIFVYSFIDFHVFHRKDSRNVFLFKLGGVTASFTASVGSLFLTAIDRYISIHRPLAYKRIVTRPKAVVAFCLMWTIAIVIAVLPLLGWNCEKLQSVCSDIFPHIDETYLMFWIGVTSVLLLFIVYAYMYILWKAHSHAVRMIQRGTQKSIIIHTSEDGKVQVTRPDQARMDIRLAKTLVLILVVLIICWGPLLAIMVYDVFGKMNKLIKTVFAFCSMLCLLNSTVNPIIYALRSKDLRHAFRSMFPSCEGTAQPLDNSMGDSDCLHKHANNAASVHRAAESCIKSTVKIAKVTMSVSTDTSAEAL

As to `CC1(COc2ccc(CC3SC(=O)NC3=O)cc2)CCCCC1` (configuration not stated) [CIGLITAZONE], the half-inhibitory concentration (IC50) in data set [1] (read-out: IC50) is 17.9 µM; in data set [2] it was “Not Active”; in data set [3], “Not Active”; in data set [4], “Not Active”; in data set [5], “Not Active”; in data set [6], “Not Active”. The IC50 entry in data set [7] is reported as “Not Active”. The Ki in data set [1] (read-out: Ki) was 13.4 µM; in data set [3] it was “Not Active”; in data set [5], “Not Active”.

For the compound `OC[C@H]1O[C@@H]2O[C@H]3[C@H](O)[C@@H](O)[C@@H](O[C@H]4[C@H](O)[C@@H](O)[C@@H](O[C@H]5[C@H](O)[C@@H](O)[C@@H](O[C@H]6[C@H](O)[C@@H](O)[C@@H](O[C@H]7[C@H](O)[C@@H](O)[C@@H](O[C@H]8[C@H](O)[C@@H](O)[C@@H](O[C@H]1[C@H](O)[C@H]2O)O[C@@H]8CO)O[C@@H]7CO)O[C@@H]6CO)O[C@@H]5CO)O[C@@H]4CO)O[C@@H]3CO` [BETADEX], the IC50 result in data set [1] (hek293), in data set [2], in data set [3], in data set [4], in data set [5] and in data set [6] was “Not Active” in each case. Further, the IC50 entry in data set [7] is “Not Active”. The Ki result in data set [3] and in data set [5] was “Not Active” throughout.

Regarding `COC(=O)Nc1nc2ccc(Sc3ccccc3)cc2[nH]1` [FENBENDAZOLE], the IC50 entry in data set [1] (hek293), in data set [2], in data set [3], in data set [4], in data set [5] and in data set [6] was “Not Active” each time. In addition, in data set [7], the IC50 result was “Not Active”. In addition, the Ki result in data set [3] and in data set [5] was “Not Active” in each case.

In the case of `C=CCO` [ALLYL ALCOHOL], the IC50 entry in data set [1] (hek293), in data set [2], in data set [3], in data set [4], in data set [5] and in data set [6] was “Not Active” in each case. For the same compound, in data set [7], the IC50 entry is on record as “Not Active”. For the same compound, the Ki entry in data set [3] and in data set [5] was “Not Active” in each case.

Regarding CARBOXYMETHYLCELLULOSE, the IC50 entry in data set [1] (hek293), in data set [2], in data set [3], in data set [4], in data set [5] and in data set [6] was “Not Active” in each case. Further, the IC50 entry in data set [7] is recorded as “Not Active”. The Ki result in data set [1] (hek293), in data set [2], in data set [3], in data set [4], in data set [5] and in data set [6] was “Not Active” throughout. For the same compound, the Ki entry in data set [7] is listed as “Not Active”.

In the case of `C=CCN1CC[C@]23c4c5ccc(O)c4O[C@H]2/C(=N/N=C2\CC[C@@]4(O)[C@H]6Cc7ccc(O)c8c7[C@@]4(CCN6CC=C)[C@H]2O8)CC[C@@]3(O)[C@H]1C5` [NALOXONAZINE], the IC50 result in data set [1] (hek293), in data set [2], in data set [3], in data set [4], in data set [5] and in data set [6] was “Not Active” throughout. In addition, the IC50 entry in data set [7] is on record as “Not Active”. Besides, the Ki result in data set [3] and in data set [5] was “Not Active” throughout.

With `Cc1ccnc2c1NC(=O)c1cccnc1N2C1CC1` [NEVIRAPINE], the IC50 result in data set [1] (hek293), in data set [2], in data set [3], in data set [4], in data set [5] and in data set [6] was “Not Active” throughout. Also, in data set [7], the IC50 result is “Not Active”. The Ki entry in data set [3] and in data set [5] was “Not Active” each time.

On to `NCC(CC(=O)O)c1ccc(Cl)cc1` (configuration not stated) [BACLOFEN], for which the IC50 result in data set [1] (hek293), in data set [2], in data set [3], in data set [4], in data set [5] and in data set [6] was “Not Active” throughout. In addition, the IC50 result in data set [7] is recorded as “Not Active”. For the same compound, the Ki entry in data set [3] and in data set [5] was “Not Active” in each case.

For the compound `CO[C@H]1O[C@@H]2O[C@@]3(C)CC[C@H]4[C@H](C)CC[C@@H]([C@H]1C)[C@@]24OO3`, the IC50 entry in data set [1] (hek293), in data set [2], in data set [3], in data set [4], in data set [5] and in data set [6] was “Not Active” in each case. For the same compound, the IC50 entry in data set [7] is recorded as “Not Active”. Besides, the Ki entry in data set [3] and in data set [5] was “Not Active” throughout.
